Assay results as given in ChEMBL document CHEMBL1137214, “11beta-alkyl-Delta9-19-nortestosterone derivatives: high-affinity ligands and potent partial agonists of the androgen receptor” (J Med Chem, 2004).

Tests used:
Glucocorticoid receptor = target: T1, Glucocorticoid receptor (Homo sapiens, UniProt P04150); test: Inhibition of CHO-K1 cells expressing glucocorticoid receptor; assay type: cell-based
T1 sequence (P04150 whole entry): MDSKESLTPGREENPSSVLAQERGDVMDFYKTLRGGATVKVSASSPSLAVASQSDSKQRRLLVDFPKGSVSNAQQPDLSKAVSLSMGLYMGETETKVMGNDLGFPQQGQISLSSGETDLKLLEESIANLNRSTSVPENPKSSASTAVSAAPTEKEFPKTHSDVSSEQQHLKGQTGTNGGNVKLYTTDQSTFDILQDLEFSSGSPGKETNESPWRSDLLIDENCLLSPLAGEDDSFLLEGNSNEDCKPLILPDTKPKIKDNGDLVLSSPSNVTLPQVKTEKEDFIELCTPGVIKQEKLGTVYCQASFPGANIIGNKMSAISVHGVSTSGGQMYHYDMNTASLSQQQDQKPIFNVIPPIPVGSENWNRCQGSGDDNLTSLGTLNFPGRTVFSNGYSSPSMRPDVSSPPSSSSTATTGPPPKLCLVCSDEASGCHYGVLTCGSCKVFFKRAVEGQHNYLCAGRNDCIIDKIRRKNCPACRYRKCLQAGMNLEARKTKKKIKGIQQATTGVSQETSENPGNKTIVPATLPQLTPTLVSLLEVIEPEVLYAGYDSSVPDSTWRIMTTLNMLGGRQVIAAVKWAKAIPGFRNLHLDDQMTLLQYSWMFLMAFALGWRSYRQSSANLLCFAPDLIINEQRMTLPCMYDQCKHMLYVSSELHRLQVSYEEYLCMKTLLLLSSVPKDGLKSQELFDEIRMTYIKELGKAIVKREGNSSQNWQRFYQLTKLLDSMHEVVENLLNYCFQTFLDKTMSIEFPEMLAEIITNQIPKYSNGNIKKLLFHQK

Androgen receptor [1] = target: T2, Androgen receptor (Homo sapiens, UniProt P10275); test: Inhibition of AR-dimerization in CHO-K1 cells expressing human androgen receptor
T2 sequence (P10275 whole entry): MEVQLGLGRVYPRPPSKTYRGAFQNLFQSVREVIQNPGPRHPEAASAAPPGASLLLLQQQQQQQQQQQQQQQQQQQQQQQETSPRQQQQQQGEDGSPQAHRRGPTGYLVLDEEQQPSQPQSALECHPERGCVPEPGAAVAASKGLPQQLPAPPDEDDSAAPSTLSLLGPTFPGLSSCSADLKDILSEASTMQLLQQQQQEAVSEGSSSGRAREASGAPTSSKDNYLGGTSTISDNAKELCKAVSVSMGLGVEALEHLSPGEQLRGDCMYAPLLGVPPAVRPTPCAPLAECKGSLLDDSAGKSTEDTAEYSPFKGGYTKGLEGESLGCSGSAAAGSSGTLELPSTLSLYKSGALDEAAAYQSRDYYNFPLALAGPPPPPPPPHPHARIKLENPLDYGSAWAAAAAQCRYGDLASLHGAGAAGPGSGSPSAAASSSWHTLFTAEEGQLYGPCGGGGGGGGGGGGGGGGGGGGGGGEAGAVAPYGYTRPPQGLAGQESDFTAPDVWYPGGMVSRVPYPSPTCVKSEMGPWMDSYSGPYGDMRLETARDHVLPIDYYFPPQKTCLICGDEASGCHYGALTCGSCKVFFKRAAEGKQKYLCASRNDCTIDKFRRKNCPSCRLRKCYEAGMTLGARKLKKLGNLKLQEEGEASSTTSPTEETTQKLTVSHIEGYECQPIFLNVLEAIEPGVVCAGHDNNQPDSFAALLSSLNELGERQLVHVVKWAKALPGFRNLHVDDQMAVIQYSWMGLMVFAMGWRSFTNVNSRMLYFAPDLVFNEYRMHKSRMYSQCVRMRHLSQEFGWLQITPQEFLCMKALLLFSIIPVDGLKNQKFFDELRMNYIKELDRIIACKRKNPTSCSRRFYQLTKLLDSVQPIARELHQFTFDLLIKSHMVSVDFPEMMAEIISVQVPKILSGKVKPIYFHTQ

Androgen receptor [2] = target: T2, Androgen receptor; test: Inhibition of human androgen receptor expressed in Escherichia coli

SMILES | IC50 (Glucocorticoid receptor) | IC50 (Androgen receptor [1]) | IC50 (Androgen receptor [2])
CCCCCCCCCC[C@H]1C[C@@]2(C)C(CC[C@@H]2O)C2CCC3=CC(=O)CCC3=C21 (stereo partly drawn) | 1810 nM | 85 nM | 0.8 nM
CCCCC[C@H]1C[C@@]2(C)C(CC[C@@H]2O)C2CCC3=CC(=O)CCC3=C21 (stereo partly drawn) | 125 nM | 0.009 nM | 0.1 nM
CC[C@H]1C[C@@]2(C)C(CC[C@@H]2O)C2CCC3=CC(=O)CCC3=C21 (stereo partly drawn) | 1290 nM | – | 2 nM
CCCCCCCC[C@H]1C[C@@]2(C)C(CC[C@@H]2O)C2CCC3=CC(=O)CCC3=C21 (stereo partly drawn) | 979 nM | 0.9 nM | 6.6 nM
CCCCCCCCCCCC[C@H]1C[C@@]2(C)C(CC[C@@H]2O)C2CCC3=CC(=O)CCC3=C21 (stereo partly drawn) | 870 nM | – | 0.2 nM
